Measurements: US7053077B1, “Use of biogenic estrogen sulfamates for hormone replacement therapy” (Schering AG, priority 1998, dated 2006)

Columns and labels:
[1] = test system: liver; conditions: relative to anti-gonadotropic properties; cited from earlier work
[2] = test system: bone; conditions: postmenopausal women, very high oral dosages; cited from earlier work
[3] = women; cited from earlier work
[4] = test system: bone; conditions: uniform active ingredient levels maintained in the blood; cited from earlier work
[5] = test system: ovariectomized rats; test: Oral estrogenic action in ovariectomized rats; assay type: in vivo
Protocol: (§1) These release-processes were ended after 24 hours.

[6] = Blood levels of estradiol and estrone in ovariectomized rats after oral treatment; assay type: in vivo
Protocol: as §1

[7] = test system: endometrium; test: Growth effect on the endometrium after daily low-dose treatment; assay type: in vivo, postmenopausal women; conditions: daily 0.1 mg, at the end of treatment
[8] = Plasma estrogen levels after one-time oral administration in postmenopausal women; assay type: in vivo
Source text: A “pool” of estrone sulfate is produced in the blood by EV. From the latter is released estrone by hydrolysis, a small proportion of which is in turn metabolized into estradiol. […] Estrone sulfate is in this case only the main metabolite of the estrogens that are produced from the sulfamate.

[9] = Protocol: In the examples below, the determination of the plasma levels of the estrogens with validated methods that are known and acknowledged in the art was performed.

Compound: C#C[C@]1(O)CC[C@H]2[C@@H]3CCc4cc(O)ccc4[C@H]3CC[C@@]21C [EE, ethinylestradiol]
- estrogenic activity in the liver compared with orally administered natural estrogens [1]: 4–18 times

Compound: C[C@]12CC[C@@H]3c4ccc(O)cc4CC[C@H]3[C@@H]1C[C@@H](O)[C@@H]2O [estriol]
- osteoprotective effect [2]: not osteoporectively effective
- half-life [3]: 1.5 to 5.3 h
- action in the bone after ovariectomy [4]: protective action in the bone

Compound: estradiol sulfamate
- oral estrogenic action ([5]; oral treatment): strong oral estrogenic action
- extension of the estrogen actions ([5]; very high dosages): did not result in an extension of the estrogen actions
- blood levels of estradiol and estrone in comparison to estradiol in an equimolar dose [6]: higher and prolonged blood levels of estradiol and estrone
- end of release processes (estradiol, estrone) [6]: ≤ 24 h
- growth effect on the endometrium relative to the starting value [7]: considerable growth effect on the endometrium
- estrone levels 24 hours after administration ([8]; one-time oral 2 mg, 24 hours, postmenopausal women): higher after estradiol sulfamate than after EV
- estrone sulfate levels 48 hours after administration ([8]; one-time oral 2 mg, 48 hours, postmenopausal women): higher after estradiol sulfamate than after EV
- estradiol blood levels one week after treatment ([8]; one-time oral 2 mg, one week, postmenopausal women): clearly exceed the starting values
- increase of estrone sulfate levels in plasma ([8]; one-time oral 2 mg, postmenopausal women (FIG. 1)): increase
- increase of estrone levels in plasma ([8]; one-time oral 2 mg, postmenopausal women (FIG. 2)): persists for a long time
- level of estrogen sulfate in comparison to EV ([8]; oral use (FIG. 4)): very low in comparison to EV
- release (surface under the curve) of estrone ([8]; oral use, compared with EV (FIG. 4)): altogether higher release
- average estrone sulfate levels ([8]; three postmenopausal women, one-time 2 mg, over 600 hours (FIG. 5)): clear increase compared to the starting values
- estrone sulfate increase compared with transdermal therapy ([8]; women, oral): behave comparably
- induced estrone sulfate levels relative to estradiol valerate ([8]; women, oral, at comparable estrone and estradiol levels in the blood): about 10 times lower
- persistence of estrone sulfate increase in plasma after the last administration ([9]; daily 0.1 mg, after last of 14 administrations): had not yet disappeared even after six days
- estrone levels in the plasma ([9]; in vivo): Relevant elevated estrone levels
- estrone sulfate level at the end of the treatment ([9]; in vivo): clear increases
- estrone sulfate level in the first 24 hours after beginning of treatment ([9]; in vivo): no clear increases
